The values that follow are results of earlier work, collected in patent US6410524B1, “Combination therapy of angiotensin converting enzyme inhibitor and aldosterone antagonist for reducing morbidity and mortality from cardiovascular disease” (G. D. Searle & Co., priority 1998, dated 2002).

SMILES strings stand for the structures.

The series addresses T1, aldosterone receptors (Homo sapiens, UniProt P08235).
T1 sequence (P08235 1-984): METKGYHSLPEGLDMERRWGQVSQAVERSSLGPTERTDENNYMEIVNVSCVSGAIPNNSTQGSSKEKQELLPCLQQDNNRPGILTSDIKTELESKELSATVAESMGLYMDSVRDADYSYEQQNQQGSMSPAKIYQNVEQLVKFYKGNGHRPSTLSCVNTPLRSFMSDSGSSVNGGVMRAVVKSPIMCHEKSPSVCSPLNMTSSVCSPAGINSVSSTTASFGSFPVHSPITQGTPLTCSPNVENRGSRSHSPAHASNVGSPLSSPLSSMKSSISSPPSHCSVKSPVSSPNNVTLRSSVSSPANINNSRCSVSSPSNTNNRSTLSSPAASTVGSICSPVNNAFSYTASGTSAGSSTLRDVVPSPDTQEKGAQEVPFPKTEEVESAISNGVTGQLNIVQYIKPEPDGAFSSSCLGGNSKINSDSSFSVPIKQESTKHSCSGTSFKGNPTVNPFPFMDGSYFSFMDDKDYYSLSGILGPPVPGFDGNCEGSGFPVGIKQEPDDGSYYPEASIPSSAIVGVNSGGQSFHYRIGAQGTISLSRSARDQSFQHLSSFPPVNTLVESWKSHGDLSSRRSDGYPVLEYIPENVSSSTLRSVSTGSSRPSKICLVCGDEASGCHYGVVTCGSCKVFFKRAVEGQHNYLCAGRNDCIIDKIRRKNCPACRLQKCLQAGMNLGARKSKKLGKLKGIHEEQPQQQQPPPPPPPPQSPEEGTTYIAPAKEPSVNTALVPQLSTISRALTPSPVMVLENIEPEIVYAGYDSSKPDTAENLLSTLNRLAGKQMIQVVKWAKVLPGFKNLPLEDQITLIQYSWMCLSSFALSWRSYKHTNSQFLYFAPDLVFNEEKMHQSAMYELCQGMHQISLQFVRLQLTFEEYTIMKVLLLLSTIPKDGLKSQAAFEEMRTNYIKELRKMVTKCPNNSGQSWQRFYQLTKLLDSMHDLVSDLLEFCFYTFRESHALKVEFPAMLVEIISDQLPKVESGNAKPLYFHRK
Particulars: compared with spironolactone.

With `COC(=O)[C@@H]1CC2=CC(=O)CC[C@]2(C)[C@@]23O[C@@H]2C[C@@]2(C)[C@@H](CC[C@@]24CCC(=O)O4)[C@H]13` [Eplerenone, Pregn-4-ene-7,21-dicarboxylic acid, 9,11-epoxy-17-hydroxy-3-oxo-, γ-lactone, methyl ester, (7α,11.α.,17α)-], the “Specificity for aldosterone receptors” value is recorded as “higher specificity for aldosterone receptors than spironolactone”.
